How the values were obtained:
PD-L1 = biological target: T1, PD-L1 (Mus musculus, UniProt Q9EP73); assay: Rescue of mouse splenocyte proliferation in the presence of recombinant PD-L1 (CFSE proliferation assay); assay type: cell-based; conditions: 100 nM compound; anti-CD3/CD28 stimulated mouse splenocytes + PD-L1; 72 h; read-out: PDL1 (rescue of proliferation @ 100 nM)
T1 construct: Fc (Fc chimera); purchased R&D Systems 1019-B7-100
Description: Example 1: Rescue of Mouse Splenocyte Proliferation in the Presence of Recombinant PD-L1/PD-L2
Recombinant mouse PD-L1 (rm-PDL-1, cat no: 1019-B7-100; R&D Systems) were used as the source of PD-L1.
Mouse splenocytes harvested from 6-8 weeks old C57 BL6 mice; RPMI 1640 (GIBCO, Cat #11875); DMEM with high glucose (GIBCO, Cat #D6429); Fetal Bovine Serum [Hyclone, Cat #SH30071.03]; Penicillin (10000 unit/mL)-Streptomycin (10,000 μg/mL) Liquid (GIBCO, Cat #15140-122); MEM Sodium Pyruvate solution 100 mM (100×)), Liquid (GIBCO, Cat #11360); Nonessential amino acid (GIBCO, Cat #11140); L-Glutamine (GIBCO, Cat #25030); Anti-CD3 antibody (eBiosciences—16-0032); Anti-CD28 antibody (eBiosciences—16-0281); ACK lysis buffer (1 mL) (GIBCO, Cat #-A10492); Histopaque (density—1.083 gm/mL) (SIGMA 10831); Trypan blue solution (SIGMA-T8154); 2 mL Norm Ject Luer Lock syringe-(Sigma 2014-12); 40 μm nylon cell strainer (BD FALCON 35230); Hemacytometer (Bright line-SIGMA Z359629); FACS Buffer (PBS/0.1% BSA): Phosphate Buffered Saline (PBS) pH 7.2 (HiMedia TS1006) with 0.1% Bovine Serum Albumin (BSA) (SIGMA A7050) and sodium azide (SIGMA 08591); 5 mM stock solution of CFSE: CFSE stock solution was prepared by diluting lyophilized CFSE with 180 μL of Dimethyl sulfoxide (DMSO C2H6SO, SIGMA-D-5879) and aliquoted in to tubes for further use. Working concentrations were titrated from 10 μM to 1 μM. (eBioscience-650850-85); 0.05% Trypsin and 0.02% EDTA (SIGMA 59417C); 96-well format ELISA plates (Corning CLS3390); BD FACS caliber (E6016); Recombinant mouse B7-H1/PDL1 Fc Chimera, (rm-PD-L1 cat no: 1019-B7-100).
Splenocytes harvested in a 50 mL falcon tube by mashing mouse spleen in a 40 μm cell strainer were further treated with 1 mL ACK lysis buffer for 5 min at room temperature. After washing with 9 mL of RPMI complete media, cells were re-suspended in 3 mL of 1×PBS in a 15 mL tube. 3 mL of Histopaque was added carefully to the bottom of the tube without disturbing overlaying splenocyte suspension. After centrifuging at 800×g for 20 min at room temperature, the opaque layer of splenocytes was collected carefully without disturbing/mixing the layers. Splenocytes were washed twice with cold 1×PBS followed by total cell counting using Trypan Blue exclusion method and used further for cell based assays.
Splenocytes were cultured in RPMI complete media (RPMI+10% fetal bovine serum+1 mM sodium pyruvate+10,000 units/mL penicillin and 10,000 μg/mL streptomycin) and maintained in a CO2 incubator with 5% CO2 at 37° C.
CFSE Proliferation Assay: CFSE is a dye that passively diffuses into cells and hinds to intracellular proteins. 1×10^6 cells/mL of harvested splenocytes were treated with 5 μM of CFSE in pre-warmed 1×PBS/0.1% BSA solution for 10 min at 37° C. Excess CFSE was quenched using 5 volumes of ice-cold culture media to the cells and incubated on ice for 5 min. CFSE labeled splenocytes were further given three washes with ice cold complete RPMI media. CFSE labeled 1×10^5 splenocytes added to wells containing either MDA-MB231 cells (1×10^5 cells cultured in high glucose DMEM medium) or recombinant human PDL-1 (100 ng/mL) and test compounds. Splenocytes were stimulated with anti-mouse CD3 and anti-mouse CD28 antibody (1 μg/mL each), and the culture was further incubated for 72 h at 37° C. with 5% CO2. Cells were harvested and washed thrice with ice cold FACS buffer and % proliferation was analysed by flow cytometry with 488 nm excitation and 521 nm emission filters. Data Compilation, Processing and Inference: […]

recombinant human TIM-3 = assay: Human PBMC IFN-γ release assay in the presence of recombinant TIM-3; assay type: cell-based; conditions: 100 nM compound, plate-coated TIM-3 + anti-CD3, anti-CD28, 72 h
Description: Vehicle: Milli Q water; RPMI 1640 (GIBCO, Cat #11875); Fetal Bovine Serum [Hyclone, Cat #SH30071.03]; Penicillin (10000 unit/ml)-Streptomycin (10,000 μg/ml) liquid (GIBCO, Cat #15140-122); MEM Sodium Pyruvate solution 100 mM (100×). Liquid (GIBCO, Cat #11360); Nonessential amino acid (GIBCO, Cat #11140); L-Glutamine (GIBCO, Cat #25030); Recombinant human TIM-3 (rhGi24 TIM-3/B7-H5 Fc chimera (R&D systems, cat no: 7126-B7); Anti-h/m Gi24/TIM-3/B7-H5 purified mouse monoclonal IgG2B (R&D systems, cat no: MAB7126); Mouse IgG2B isotype control (R&D Systems cat no: MAB 004); Anti human-CD3 antibody (eBiosciences—16-0039); Anti human-CD28 antibody (eBiosciences—16-0289); Histopaque (density-1.077 gm/ml) (SIGMA 1077); Trypan Blue solution (SIGMA-T8154); Hemacytometer (Bright line-SIGMA Z359629); FACS Buffer containing Phosphate Buffered Saline (PBS) pH 7.2; (HiMedia TS1006) with 0.1% Bovine Serum Albumin (BSA) (SIGMA A7050) and sodium azide (SIGMA 08591); 96-well format ELISA plates (Corning 3599); 96-well format ELISA plates (Corning 3361); BD FACS caliber (E6016); Centrifuge (Eppendorf 5810 R); Human IFN-'γ Duo set ELISA kit (R&D Systems; cat no: DY-285).
Human PBMC IFN-γ Release Assay
96-well cell culture plates were pre-coated with recombinant human TIM-3 (2.5 μg/ml) and anti-human CD3 (2.5 μg/ml), and stored at 4° C. overnight. Anti-human TIM-3 and isotype control antibodies were either coated along with the TIM-3 or incubated for 30 min next day before addition of cells. On the next day, plates were washed with 1× PBS and then incubated with test compounds for 30 min. Isolated PBMC (0.1×10^6 cells/well) and anti-human CD28 antibodies (1 μg/ml) were added to the wells. The culture was further incubated for 72 h at 37° C. with 5% CO2. After 72 h of incubation the cell culture supernatants were collected after brief centrifugation at 200 g×5 min at 4° C. and processed for human IFN-γ measurement by ELISA following manufacturer's protocol (R&D Systems; DY-285).
In brief, 96-well ELISA plates were coated with 100 μl/well of capture antibody in coating buffer and incubated overnight at 4° C. Plates were washed five times with wash buffer and further blocked with 200 μl of 1× assay diluents for 1 hr at RT. Following wash step, 100 μl of cell culture supernatants were added to wells and further incubated for 2 hr at RT. Appropriate standards were also included. After wash step, plate was incubated for one hour with 100 μl/well of detection antibody. The wash step was repeated and the plate was incubated for 30 min with 100 μl/well of Avidin-HRP. The plate was washed four times with wash buffer and subsequently incubated for 15 min with 100 μl/well of substrate solution. 50 μl of stop solution was added to each well and the plate was read at 450 nm using Gen5 ver 2.05. Delta OD values were used for calculating the concentrations. The absorbance values were plotted against the standards and the concentration of IFN-γ was determined using GraphPad Prism software. Each experimental condition was carried out in triplicates.
The percent rescue of IFN-γ release of the selected compounds of present invention are set forth below wherein “A” refers to compounds having more than 70% rescue of IFN-γ release, “B” refers to compounds having rescue of IFN-γ release ranges from 50% to 69.9% and “C” refers to compounds having less than 50% rescue of IFN-γ release.

T1 sequence (Q9EP73 19-238 limits assumed): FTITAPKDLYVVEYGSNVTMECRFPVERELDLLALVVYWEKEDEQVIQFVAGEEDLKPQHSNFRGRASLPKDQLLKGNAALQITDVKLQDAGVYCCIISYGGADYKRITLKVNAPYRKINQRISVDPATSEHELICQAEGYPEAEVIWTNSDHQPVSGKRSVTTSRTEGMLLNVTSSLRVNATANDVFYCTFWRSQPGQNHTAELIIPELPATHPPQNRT

SMILES | activity at 0.1 µM (PD-L1) | TIM-3 (rescue of IFN γ release @ 100 nM) (recombinant human TIM-3)
CC(O)[C@@H](NC(=O)N[C@@H](CC(N)=O)c1nc([C@@H](N)CO)no1)C(=O)O (stereo partly drawn) [Compound 22] | 90% | C (less than 50% rescue of IFN-γ release)
CC(O)[C@H](NC(=O)N[C@@H](CCC(=O)O)c1nc(C2COCCN2)no1)C(=O)O (stereo partly drawn) [Compound 17] | 57% | C (less than 50% rescue of IFN-γ release)
CC(O)[C@H](NC(=O)N[C@@H](CCC(=O)O)c1nc([C@@H](N)CCCCN)no1)C(=O)O (stereo partly drawn) [Compound 6] | 52% | A (more than 70% rescue of IFN-γ release)
CCC(C)[C@H](NC(=O)N[C@@H](CC(N)=O)c1nc([C@@H](N)CO)no1)C(=O)O (stereo partly drawn) [Compound 2] | 73% | A (more than 70% rescue of IFN-γ release)
CC(O)[C@H](NC(=O)N[C@@H](CC(N)=O)c1nc([C@@H](O)CO)no1)C(=O)O (stereo partly drawn) [Compound 24] | 65% | A (more than 70% rescue of IFN-γ release)
CSCC[C@H](N)c1noc([C@H](CC(N)=O)NC(=O)N[C@@H](CC(=O)O)C(=O)O)n1 [Compound 10] | 53% | C (less than 50% rescue of IFN-γ release)
CC(O)[C@H](NC(=O)N[C@@H](CCC(=O)O)c1nc([C@@H](N)CO)no1)C(=O)O (stereo partly drawn) [Compound 5] | 88% | A (more than 70% rescue of IFN-γ release)
CC(O)[C@H](NC(=O)N[C@@H](CC(N)=O)c1nc(C2COCCN2)no1)C(=O)O (stereo partly drawn) [Compound 16] | 92% | B (rescue of IFN-γ release ranges from 50% to 69.9%)
CC(O)[C@H](NC(=O)N[C@@H](CC(N)=O)c1nc(C2(N)CCCC2)no1)C(=O)O (stereo partly drawn) [Compound 23] | 47% | C (less than 50% rescue of IFN-γ release)
CN[C@@H](CO)c1noc([C@@H](N)CC(N)=O)n1 [Compound 26] | 53% | B (rescue of IFN-γ release ranges from 50% to 69.9%)
NCCCC[C@H](N)c1noc([C@H](CC(N)=O)NC(=O)N[C@@H](CO)C(=O)O)n1 [Compound 12] | 41% | A (more than 70% rescue of IFN-γ release)
CC(O)[C@H](NC(=O)N[C@@H](CC(N)=O)c1nc([C@@H](N)Cc2ccccc2)no1)C(=O)O (stereo partly drawn) [Compound 3] | 62% | A (more than 70% rescue of IFN-γ release)
N[C@@H](Cc1ccc(O)cc1)c1noc([C@@H]2CC(O)CN2C(=O)N[C@@H](Cc2ccc(O)cc2)C(=O)O)n1 (stereo partly drawn) [Compound 18] | 57% | C (less than 50% rescue of IFN-γ release)
CC(=O)NCCCC[C@H](NC(=O)N[C@H](C(=O)O)C(C)O)c1nc([C@@H](N)CO)no1 (stereo partly drawn) [Compound 20] | 37% | C (less than 50% rescue of IFN-γ release)
CC(O)[C@H](NC(=O)N[C@H](CC(N)=O)c1nc([C@@H](N)CO)no1)C(=O)O (stereo partly drawn) [Compound 7] | 74% | A (more than 70% rescue of IFN-γ release)
CC(O)[C@@H](N)c1noc([C@@H](CC(N)=O)NC(=O)N[C@H](CO)C(=O)O)n1 (stereo partly drawn) [Compound 8] | 68% | B (rescue of IFN-γ release ranges from 50% to 69.9%)
CC(O)[C@H](NC(=O)N[C@@H](CC(N)=O)c1nc([C@@H](N)Cc2ccc(O)cc2)no1)C(=O)O (stereo partly drawn) [Compound 21] | 50% | C (less than 50% rescue of IFN-γ release)
CC(O)[C@H](NC(=O)N[C@@H](CC(N)=O)c1nc([C@@H](N)CCC(=O)O)no1)C(=O)O (stereo partly drawn) [Compound 1] | 68% | B (rescue of IFN-γ release ranges from 50% to 69.9%)

— US11497734B2, “Dual inhibitors of TIM-3 and PD-1 pathways” (Aurigene Discovery Technologies Limited, priority 2017, dated 2022)
